This note sets out measurements from US7220772B2, “Pyrazole derivatives” (Pfizer, Inc., priority 2003, dated 2007).

Data set [1] addresses T1, HIV-1 reverse transcriptase (Human immunodeficiency virus type 1 group M subtype B, UniProt P04585).
T1 construct: purified recombinant HIV-1 reverse transcriptase (RT, EC, 2.7.7.49) obtained by expression in Escherichia Coli; made in house; host or cells: Escherichia coli
As to the kind of experiment: Inhibition of HIV-1 Reverse Transcriptase Enzyme. Type of data set: biochemical. The following applies: purified recombinant HIV-1 RT expressed in Escherichia Coli; [3H]-SPA or [3H]-flashplate enzyme assay; 5% final DMSO. From the text:
The activity of the compounds of the invention as reverse transcriptase inhibitors may be measured using the following assay.
Inhibition of HIV-1 Reverse Transcriptase Enzyme
Using purified recombinant HIV-1 reverse transcriptase (RT, EC, 2.7.7.49) obtained by expression in Escherichia Coli, a 96-well plate assay system is established for assaying a large number of samples using either the Poly(rA)-oligo(dT) Reverse Transcriptase [3H]-SPA enzyme assay system (Amersham NK9020) or the [3H]-flashplate enzyme assay system (NEN-SMP 103) and following the manufacturer's recommendations. The compounds are dissolved in 100% DMSO and diluted with the appropriate buffer to a 5% final DMSO concentration. The inhibitory activity is expressed in percent inhibition relative to DMSO control.

Broadly, the IC50 is the concentration needed to halve the response being measured. For `CCc1n[nH]c(CCOc2ccc(SC)cc2)c1Oc1cc(C#N)cc(C#N)c1` [Example 1, 5-[(3-Ethyl-5-{2-[4-(methylsulfanyl)phenoxy]ethyl}-1H-pyrazol-4-yl)oxy]isophthalonitrile], the IC50 in data set [1] was found to be 2 nM.
Usually melting point stands for the temperature, or range, at which the solid turns liquid. `CCc1n[nH]c(CCOc2ccc(S(C)(=O)=O)cc2)c1Oc1cc(C#N)cc(C#N)c1` [Example 3, 5-[(3-Ethyl-5-{2-[4-(methylsulfonyl)phenoxy]ethyl}-1H-pyrazol-4-yl)oxy]isophthalonitrile] had a melting point of 88 to 90 °C. In addition, in data set [1], the IC50 turned out to be 45 nM.
